Structures can show the parent of a compound that is named as a salt.
Tests used:
[1] = target: T1, horseradish peroxidase (HRP) tagged delF508-CFTR (Homo sapiens, UniProt P13569, DEL508-508); experiment: Measurement of delF508-CFTR-HRP surface expression in CFBE41o- cells; format: cell-based; details: delF508-CFTR-HRP surface expression, CFBE41o- cells; for Emax: read-out: DelF508-CFTR-HRP Amax %; for EC50: read-out: DelF508-CFTR-HRP EC50;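 on DelF508-CFTR-HRP Amax %: percent efficacy relative to reference corrector lumacaftor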
T1 construct: expressed in transfected cells
T1 sequence (P13569 with tags, fused parts or gaps DEL508-508): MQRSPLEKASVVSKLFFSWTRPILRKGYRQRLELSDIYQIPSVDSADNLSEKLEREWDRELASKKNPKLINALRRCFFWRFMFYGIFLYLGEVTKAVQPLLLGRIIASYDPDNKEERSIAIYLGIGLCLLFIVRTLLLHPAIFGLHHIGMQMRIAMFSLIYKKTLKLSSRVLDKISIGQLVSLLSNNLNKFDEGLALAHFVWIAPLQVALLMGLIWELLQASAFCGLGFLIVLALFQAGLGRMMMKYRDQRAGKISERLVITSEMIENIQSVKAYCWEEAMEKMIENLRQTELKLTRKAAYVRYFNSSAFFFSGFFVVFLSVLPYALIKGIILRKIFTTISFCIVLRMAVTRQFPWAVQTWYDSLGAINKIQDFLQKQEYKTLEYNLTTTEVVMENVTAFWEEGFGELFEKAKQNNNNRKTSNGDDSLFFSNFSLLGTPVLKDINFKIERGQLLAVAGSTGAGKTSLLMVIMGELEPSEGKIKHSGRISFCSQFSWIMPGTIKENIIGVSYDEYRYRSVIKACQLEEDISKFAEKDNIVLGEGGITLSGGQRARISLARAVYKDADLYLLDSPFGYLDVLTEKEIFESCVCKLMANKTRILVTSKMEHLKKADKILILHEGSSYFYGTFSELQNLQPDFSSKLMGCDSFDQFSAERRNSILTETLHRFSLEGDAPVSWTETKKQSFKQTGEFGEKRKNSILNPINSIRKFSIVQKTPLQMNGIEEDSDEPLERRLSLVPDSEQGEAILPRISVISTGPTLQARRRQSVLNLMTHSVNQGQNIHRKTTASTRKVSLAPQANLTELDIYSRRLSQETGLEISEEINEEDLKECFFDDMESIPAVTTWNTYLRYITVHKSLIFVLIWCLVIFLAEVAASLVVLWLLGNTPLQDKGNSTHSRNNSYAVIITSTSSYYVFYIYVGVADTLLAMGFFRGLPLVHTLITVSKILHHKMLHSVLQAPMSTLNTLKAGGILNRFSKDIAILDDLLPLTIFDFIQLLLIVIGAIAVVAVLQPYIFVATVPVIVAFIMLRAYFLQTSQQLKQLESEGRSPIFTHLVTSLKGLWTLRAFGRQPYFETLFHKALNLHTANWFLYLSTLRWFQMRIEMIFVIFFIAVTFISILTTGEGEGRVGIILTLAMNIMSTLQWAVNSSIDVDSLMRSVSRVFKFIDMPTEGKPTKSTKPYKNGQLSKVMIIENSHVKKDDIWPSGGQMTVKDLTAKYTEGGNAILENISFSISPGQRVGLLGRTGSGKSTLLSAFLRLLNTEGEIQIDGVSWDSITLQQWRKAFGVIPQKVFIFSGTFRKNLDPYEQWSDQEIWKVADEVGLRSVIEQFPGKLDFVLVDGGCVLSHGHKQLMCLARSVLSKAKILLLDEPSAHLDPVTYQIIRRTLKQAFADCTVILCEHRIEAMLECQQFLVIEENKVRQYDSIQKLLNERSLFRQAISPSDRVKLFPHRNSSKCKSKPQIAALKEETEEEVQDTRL
Method in brief: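 Surface-trafficked delF508-CFTR detected via extracellular HRP tag, read as luminescence from a membrane-impermeant substrate in CFBE41o- cells. Cells pre-induced 48h with 500 ng/mL doxycycline, then exposed 24h at 37° C to a 10-point, 3-fold dilution series from 10 μM (DMSO ≤0.5%). Triplicate dose-responses fitted logistically for EC50 after per-plate normalization; fold change versus reference compound.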

delF508-CFTR = target: T2, delF508-CFTR (Homo sapiens, UniProt P13569, DEL508-508); experiment: Measurement of delF508-CFTR functional activity in primary human bronchial epithelial cells (HBECs) using Multi-Transepithelial Clamp Circuit (MTECC-24) assay; format: cell-based; details: primary CF HBECs; for MTECC24 CFHBEC- Amax %: test compound added 24h before assay plus potentiator, relative to reference combination (2 μM corrector + 0.5 μM potentiator); for EC50: test compound added 24h before assay, in the presence of potentiator, mean of at least two replicates, read-out: MTECC24 CFHBEC- EC50
T2 construct: functional activity of the CFTR channel (Chloride ion transport) in patient derived primary human bronchial epithelial cells; host or cells: patient-derived primary human bronchial epithelial cells (delF508-CFTR)
T2 sequence (P13569 with tags, fused parts or gaps DEL508-508): as above
Method in brief: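 Compound tested as 10-point, 1-in-3 concentration response (0.1% or 0.2% DMSO), 24 h basolateral pre-incubation, then re-added to both sides. MTECC-24 measured Ieq in ALI-differentiated primary delF508 bronchial cells after amiloride, forskolin activation, potentiator and INH-172 block; data normalized to DMSO baseline, EC50 fitted.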

Row | Compound | Emax [1] [%] | EC50 [1] [nM] | MTECC24 CFHBEC- Amax % (delF508-CFTR) [%] | EC50 (delF508-CFTR) [nM]
1 | O=S(=O)(Nc1ccc(C(F)(F)F)c(-c2ccccc2C2CC2)n1)c1cccc(N2CCNCC2)n1 [Example 148, N-(6-(2-cyclopropylphenyl)-5-(trifluoromethyl)pyridin-2-yl)-6-(piperazin-1-yl)pyridine-2-sulfonamide] | 363 | 2460 | 74.1 | 85.4
2 | O=S(=O)(Nc1ccc(C(F)(F)F)c(-c2ccccc2Cl)n1)c1cccc(N2CCNCC2)n1 [Example 150, N-(6-(2-chlorophenyl)-5-(trifluoromethyl)pyridin-2-yl)-6-(piperazin-1-yl)pyridine-2-sulfonamide hydrochloride] | 180 | 3510 | 64.4 | 97.3
3 | Cc1c(F)cccc1-c1nc(NS(=O)(=O)c2cccc(N3CCNCC3)n2)ccc1C(F)(F)F [Example 151, N-(6-(3-Fluoro-2-Methylphenyl)-5-(Trifluoromethyl)Pyridin-2-yl)-6-(Piperazin-1-yl)Pyridine-2-Sulfonamide Hydrochloride] | 187 | 3690 | 75.3 | 95.6
4 | Cc1ccc(F)cc1-c1nc(NS(=O)(=O)c2cccc(N3CCNCC3)n2)ccc1C(F)(F)F [Example 152, N-(6-(5-Fluoro-2-Methylphenyl)-5-(Trifluoromethyl)Pyridin-2-yl)-6-(Piperazin-1-yl)Pyridine-2-Sulfonamide Hydrochloride] | 332 | 2680 | 62.5 | 57.8
5 | COc1ccc(Cl)c(-c2nc(NS(=O)(=O)c3cccc(N4CCNCC4)n3)ccc2C(F)(F)F)c1 [Example 154, N-(6-(2-chloro-5-methoxyphenyl)-5-(trifluoromethyl)pyridin-2-yl)-6-(piperazin-1-yl)pyridine-2-sulfonamide hydrochloride] | 395 | 3460 | 69.5 | 239
6 | COc1ccc(Cl)c(-c2nc(NS(=O)(=O)c3cccc(N4CCNCC4)n3)ccc2Cl)c1 [Example 158, N-(5-chloro-6-(2-chloro-5-methoxyphenyl)pyridin-2-yl)-6-(piperazin-1-yl)pyridine-2-sulfonamide hydrochloride] | 230 | 4190 | 76.6 | 93.5
7 | Cc1ccccc1-c1nc(NS(=O)(=O)c2cccc(N3CCNCC3)n2)ccc1C(F)(F)F [Example 161, 6-(piperazin-1-yl)-N-(6-(o-tolyl)-5-(trifluoromethyl)pyridin-2-yl)pyridine-2-sulfonamide (HCl Salt)] | 222 | 2900 | 88.2 | 91.6
8 | Cc1cccc(C)c1-c1nc(NS(=O)(=O)c2cccc(N3CCNCC3)n2)ccc1Cl [Example 163, N-(5-chloro-6-(2,6-dimethylphenyl)pyridin-2-yl)-6-(piperazin-1-yl)pyridine-2-sulfonamide Hydrochloride] | 305 | 3140 | 64.8 | 59
9 | Cc1ccccc1-c1nc(NS(=O)(=O)c2cccc(N3CCN[C@@H](CO)C3)n2)ccc1C(F)(F)F [Example 165, (R)-6-(3-(hydroxymethyl)piperazin-1-yl)-N-(6-(o-tolyl)-5-(trifluoromethyl)pyridin-2-yl)pyridine-2-sulfonamide hydrochloride] | 401 | 2900 | 50.8 | 342
10 | Cc1ccccc1-c1nc(NS(=O)(=O)c2cccc(N3CCN[C@H](C)C3)n2)ccc1C(F)(F)F [Example 167, (R)-6-(3-methylpiperazin-1-yl)-N-(6-(o-tolyl)-5-(trifluoromethyl)pyridin-2-yl)pyridine-2-sulfonamide Hydrochloride] | 317 | 3710 | 67.6 | 85.5
11 | Cc1ccc(C(F)(F)F)cc1-c1nc(NS(=O)(=O)c2cccc(N3CCNCC3)n2)ccc1Cl [Example 169, N-(5-chloro-6-(2-methyl-5-(trifluoromethyl)phenyl)pyridin-2-yl)-6-(piperazin-1-yl)pyridine-2-sulfonamide Hydrochloride] | 182 | 4000 | 40.5 | 144
12 | Cc1ccccc1-c1nc(NS(=O)(=O)c2cccc(N3CCNC[C@H]3C)n2)ccc1C(F)(F)F [Example 171, (R)-6-(2-methylpiperazin-1-yl)-N-(6-(o-tolyl)-5-(trifluoromethyl)pyridin-2-yl)pyridine-2-sulfonamide Hydrochloride] | 505 | 2730 | 66.2 | 118
13 | Cc1cccc(C)c1-c1nc(NS(=O)(=O)c2cccc(N3CCN[C@@H](CO)C3)n2)ccc1C(F)(F)F [Example 172, (R)—N-(6-(2,6-dimethylphenyl)-5-(trifluoromethyl)pyridin-2-yl)-6-(3-(hydroxymethyl)piperazin-1-yl)pyridine-2-sulfonamide Hydrochloride] | 684 | 2510 | 77.0 | 314
14 | Cc1ccc(F)cc1-c1nc(NS(=O)(=O)c2cccc(N3CCN[C@@H](CO)C3)n2)ccc1C(F)(F)F [Example 174, (R)—N-(6-(5-fluoro-2-methylphenyl)-5-(trifluoromethyl)pyridin-2-yl)-6-(3-(hydroxymethyl)piperazin-1-yl)pyridine-2-sulfonamide Hydrochloride] | 515 | 2640 | 57.1 | 207

These reach a lower EC50 [1]. Values come first.

Row | Emax [1] [%] | EC50 [1] [nM] | MTECC24 CFHBEC- Amax % (delF508-CFTR) [%] | EC50 (delF508-CFTR) [nM] | Compound
15 | 482 | 375 | 92.8 | 4.2 | CC(C)(C)OC(=O)N1CCN(c2cccc(S(=O)(=O)Nc3ccc(C(F)(F)F)c(-c4ccccc4C4CC4)n3)n2)CC1 [Example 147, tert-butyl 4-(6-(N-(6-(2-cyclopropylphenyl)-5-(trifluoromethyl)pyridin-2-yl)sulfamoyl)pyridin-2-yl)piperazine-1-carboxylate]
16 | 289 | 1750 | 76.0 | 22.8 | COc1ccc(F)cc1-c1nc(NS(=O)(=O)c2cccc(N3CCN(C(C)(C)C)CC3)n2)ccc1C(F)(F)F [Example 149, 6-(4-(tert-butyl)piperazin-1-yl)-N-(6-(5-fluoro-2-methoxyphenyl)-5-(trifluoromethyl)pyridin-2-yl)pyridine-2-sulfonamide]
17 | 476 | 743 | 88.2 | 23.3 | Cc1ccccc1-c1nc(NS(=O)(=O)c2cccc(N3CCN(C(=O)OC(C)(C)C)CC3)n2)ccc1C(F)(F)F [Example 160, tert-butyl 4-(6-(N-(6-(o-tolyl)-5-(trifluoromethyl)pyridin-2-yl)sulfamoyl)pyridin-2-yl)piperazine-1-carboxylate]
18 | 662 | 666 | 58.8 | 17.7 | Cc1cccc(C)c1-c1nc(NS(=O)(=O)c2cccc(N3CCN(C(=O)OC(C)(C)C)CC3)n2)ccc1Cl [Example 162, tert-butyl 4-(6-(N-(5-chloro-6-(2,6-dimethylphenyl)pyridin-2-yl)sulfamoyl)pyridin-2-yl)piperazine-1-carboxylate]
19 | 578 | 1060 | 74.3 | 49.5 | Cc1ccccc1-c1nc(NS(=O)(=O)c2cccc(N3CCN(C(=O)OC(C)(C)C)[C@@H](CO)C3)n2)ccc1C(F)(F)F [Example 164, tert-butyl (R)-2-(hydroxymethyl)-4-(6-(N-(6-(o-tolyl)-5-(trifluoromethyl)pyridin-2-yl)sulfamoyl)pyridin-2-yl)piperazine-1-carboxylate]
20 |  | 744 | 62.4 | 11.8 | Cc1ccccc1-c1nc(NS(=O)(=O)c2cccc(N3CCN(C(=O)OC(C)(C)C)[C@H](C)C3)n2)ccc1C(F)(F)F [Example 166, tert-butyl (R)-2-methyl-4-(6-(N-(6-(o-tolyl)-5-(trifluoromethyl)pyridin-2-yl)sulfamoyl)pyridin-2-yl)piperazine-1-carboxylate]
21 | 306 | 2200 | 63.3 | 174 | Cc1ccccc1-c1nc(NS(=O)(=O)c2cccc(N3CCNC[C@@H]3C)n2)ccc1C(F)(F)F [Example 170, (S)-6-(2-methylpiperazin-1-yl)-N-(6-(o-tolyl)-5-(trifluoromethyl)pyridin-2-yl)pyridine-2-sulfonamide Hydrochloride]
22 | 682 | 2370 | 61.4 | 76.9 | Cc1cccc(C)c1-c1nc(NS(=O)(=O)c2cccc(N3CCN[C@H](CO)C3)n2)ccc1C(F)(F)F [Example 173, (S)—N-(6-(2,6-dimethylphenyl)-5-(trifluoromethyl)pyridin-2-yl)-6-(3-(hydroxymethyl)piperazin-1-yl)pyridine-2-sulfonamide Hydrochloride]

Source: US11066369B2, “N-(pyridin-2-yl)pyridine-sulfonamide derivatives and their use in the treatment of disease” (Novartis AG, priority 2016, dated 2021)
